Reference: US12331035B2, “Bicyclic compound and use thereof” (SK BIOPHARMACEUTICALS CO., LTD., priority 2019, dated 2025)
pIC50: −log10 of the molar value.

Molecular target: T1, PRMT5-MEP50 enzyme complex (Homo sapiens, UniProt O14744)
T1 construct: purchased BPS Bioscience (USA) 51045
Assay: In vitro PRMT5 enzyme activity assay (methylation of histone H4 arginine H4R3, ELISA absorbance at 450 nm)
Format: biochemical
Settings: S-adenosylmethionine, histone H4 peptide, 2 hours at room temperature, 8 points 10 μM to 0.128 nM
Description: Method for Measuring Enzyme Activity
In vitro assay: PRMT5-MEP50 enzyme complex, cofactor S-adenosylmethionine (SAM) and histone H4 peptide were reacted in vitro, and methylation of arginine (H4R3) —which is the third amino acid of histone H4—was measured in order to measure the enzyme activity of PRMT5.
Reagents: PRMT5-MEP50 enzyme complex (Catalog No. 51045), blocking buffer (52100-B), histone methyltransferase reaction buffer 2 (4×HMT assay buffer 2, Catalog No. 52170), and primary antibody (primary antibody 4-3, Catalog No. 52150) were purchased from BPS Bioscience (USA). The histone H4 peptide (1-20 amino acids) was custom made by Komabiotech (Korea) and used. S-adenosylmethionine was purchased from NEB (New England Biolabs, USA, Catalog No. B9003S). Plates for coating histone H4 peptide, washing buffer and color development reagent were purchased from the following vendors: Plate (Immobilizer™-Amino Plate, NUNC, Denmark, Catalog No. 436023), carbonate-bicarbonate buffer (Sigma-Aldrich, USA, Catalog No. C3041), washing buffer (10×TBST, Biosesang, Korea, Catalog No. T2005), TMB ELISA substrate (Abcam, UK, Catalog No. ab210902), horseradish peroxidase (HRP)-conjugated antibody (Abcam, UK, Catalog No. ab6721).
Experimental procedure: The histone H4 peptide was diluted with carbonate-bicarbonate buffer and prepared to 100 μg/mL, and then dispensed onto the plate per 100 μL and reacted at 37° C. for 1 hour. PRMT5-MEP50 enzyme complex and S-adenosylmethionine were diluted with histone methyltransferase reaction buffer to prepare 5 μg/mL and 2 μM, respectively, and then 20 μL of PRMT5-MEP50 enzyme complex and 25 μL of S-adenosylmethionine were dispensed onto the plate prepared above. 5 μL of the compound diluted with 10% dimethyl sulfoxide solution was added thereto and reacted at room temperature for 2 hours (final volume=50 μL). The concentration of the compound was diluted 1:5 from 10 μM until the lowest concentration of 0.128 nM, and 8 points were used for the test. After preparing the primary antibody by diluting 1:2000 with blocking buffer, 100 μL was added to the plate and reacted at room temperature for 1 hour. After preparing horseradish peroxidase-conjugated antibody by diluting 1:10,000 with blocking buffer, 100 μL was added to the plate and reacted at room temperature for 1 hour. 100 μL of TMB substrate was added and reacted for 3 minutes at room temperature, and 100 μL of 1 N sulfuric acid was then added to terminate the reaction. Then, the absorbance at 450 nm was measured to calculate the IC50 value of the compound. (+++: 1 to 100 nM, ++: greater than 100 to 1,000 nM, +: greater than 1,000 to 10,000 nM)

T1 sequence (O14744 2-637 limits assumed): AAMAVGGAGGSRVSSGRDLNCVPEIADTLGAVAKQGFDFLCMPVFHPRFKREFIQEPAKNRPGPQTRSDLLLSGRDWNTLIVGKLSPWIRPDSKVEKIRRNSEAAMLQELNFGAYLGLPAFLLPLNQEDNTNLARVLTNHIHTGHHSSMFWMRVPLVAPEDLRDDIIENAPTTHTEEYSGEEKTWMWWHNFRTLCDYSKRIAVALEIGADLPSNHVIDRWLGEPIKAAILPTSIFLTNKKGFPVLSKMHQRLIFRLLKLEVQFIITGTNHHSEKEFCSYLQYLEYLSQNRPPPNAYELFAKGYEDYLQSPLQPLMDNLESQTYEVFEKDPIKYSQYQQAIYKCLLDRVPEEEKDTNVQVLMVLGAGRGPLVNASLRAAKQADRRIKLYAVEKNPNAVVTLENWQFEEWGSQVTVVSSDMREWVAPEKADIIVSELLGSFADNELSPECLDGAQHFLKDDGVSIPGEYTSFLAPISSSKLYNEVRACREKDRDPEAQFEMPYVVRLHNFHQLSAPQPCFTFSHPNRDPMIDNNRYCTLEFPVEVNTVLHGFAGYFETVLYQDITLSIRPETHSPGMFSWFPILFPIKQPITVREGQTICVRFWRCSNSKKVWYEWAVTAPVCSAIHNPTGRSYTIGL
T1 sequence (Q9BQA1 2-342 partner limits assumed): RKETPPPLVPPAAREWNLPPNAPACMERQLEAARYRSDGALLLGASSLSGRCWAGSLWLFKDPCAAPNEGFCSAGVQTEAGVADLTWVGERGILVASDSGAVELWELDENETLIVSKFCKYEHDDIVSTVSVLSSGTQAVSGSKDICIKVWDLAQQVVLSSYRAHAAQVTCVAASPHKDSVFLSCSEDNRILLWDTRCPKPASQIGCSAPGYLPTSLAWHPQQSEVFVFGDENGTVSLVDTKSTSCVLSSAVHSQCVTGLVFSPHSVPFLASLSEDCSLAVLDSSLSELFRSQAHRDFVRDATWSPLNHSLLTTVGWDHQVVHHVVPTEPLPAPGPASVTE

**Q.** With `O=C1c2ccc(Br)cc2CCN1C[C@H](O)CN1CCc2ccccc2C1` [Example 1, 6-bromo-2-[(2R)-3-(3,4-dihydro-1H-isoquinolin-2-yl)-2-hydroxy-propyl]-3,4-dihydroisoquinolin-1-one] as the compound, how does the pIC50 read?
**A.** The pIC50 was 7.00 to 9.00.

**Q.** With `O=C1c2ccc(N3CCCC3)cc2CCN1C[C@H](O)CN1CCc2ccccc2C1` [Example 2, 2-[(2R)-3-(3,4-dihydro-1H-isoquinolin-2-yl)-2-hydroxy-propyl]-6-pyrrolidin-1-yl-3,4-dihydroisoquinolin-1-one] as the compound, how does the pIC50 read?
**A.** Its pIC50 is 6.00 to 7.00.

**Q.** How did the pIC50 turn out when `O=C1c2ccc(NC3CCOCC3)cc2CCN1C[C@H](O)CN1CCc2ccccc2C1` [Example 5, 2-[(2R)-3-(3,4-dihydro-1H-isoquinolin-2-yl)-2-hydroxy-propyl]-6-(tetrahydropyran-4-ylamino)-3,4-dihydroisoquinolin-1-one] was run?
**A.** The pIC50 was 7.00 to 9.00.

**Q.** `O=C1c2ccc(NCC3CCCCC3)cc2CCN1C[C@H](O)CN1CCc2ccccc2C1` [Example 6, 6-(cyclohexylmethylamino)-2-[(2R)-3-(3,4-dihydro-1H-isoquinolin-2-yl)-2-hydroxy-propyl]-3,4-dihydroisoquinolin-1-one] was tested. Which pIC50 did it give?
**A.** Its pIC50 is 7.00 to 9.00.

**Q.** With `O=C1c2ccc(NCc3ccccc3)cc2CCN1C[C@H](O)CN1CCc2ccccc2C1` [Example 7, 6-(benzylamino)-2-[(2R)-3-(3,4-dihydro-1H-isoquinolin-2-yl)-2-hydroxy-propyl]-3,4-dihydroisoquinolin-1-one] as the compound, how does the pIC50 read?
**A.** Its pIC50 is 7.00 to 9.00.

**Q.** With `O=C1c2ccc(-c3ccncc3)cc2CCN1C[C@H](O)CN1CCc2ccccc2C1` [Example 8, 2-[(2R)-3-(3,4-dihydro-1H-isoquinolin-2-yl)-2-hydroxy-propyl]-6-(4-pyridyl)-3,4-dihydroisoquinolin-1-one] as the compound, how does the pIC50 read?
**A.** Its pIC50 is 7.00 to 9.00.

**Q.** `O=C1c2ccc(-c3cccnc3)cc2CCN1C[C@H](O)CN1CCc2ccccc2C1` [Example 9, 2-[(2R)-3-(3,4-dihydro-1H-isoquinolin-2-yl)-2-hydroxy-propyl]-6-(3-pyridyl)-3,4-dihydroisoquinolin-1-one] was tested. Which pIC50 did it give?
**A.** The pIC50 was 7.00 to 9.00.

**Q.** How did the pIC50 turn out when `O=C1c2ccc(NCc3ccncc3)cc2CCN1C[C@H](O)CN1CCc2ccccc2C1` [Example 10, 2-[(2R)-3-(3,4-dihydro-1H-isoquinolin-2-yl)-2-hydroxy-propyl]-6-(4-pyridylmethylamino)-3,4-dihydroisoquinolin-1-one] was run?
**A.** The pIC50 was 7.00 to 9.00.

**Q.** `CN(c1ccc2c(c1)CCN(C[C@H](O)CN1CCc3ccccc3C1)C2=O)C1CCCCC1` [Example 11, 6-[cyclohexyl(methyl)amino]-2-[(2R)-3-(3,4-dihydro-1H-isoquinolin-2-yl)-2-hydroxy-propyl]-3,4-dihydroisoquinolin-1-one] was tested. Which pIC50 did it give?
**A.** Its pIC50 is 7.00 to 9.00.

**Q.** `O=C1c2ccc(-c3ccnc(F)c3)cc2CCN1C[C@H](O)CN1CCc2ccccc2C1` [Example 12, 2-[(2R)-3-(3,4-dihydro-1H-isoquinolin-2-yl)-2-hydroxy-propyl]-6-(2-fluoro-4-pyridyl)-3,4-dihydroisoquinolin-1-one] was tested. Which pIC50 did it give?
**A.** The pIC50 was 7.00 to 9.00.

**Q.** With `CCCc1ccc2c(c1)CCN(C[C@H](O)CN1CCc3ccccc3C1)C2=O` [Example 13, 2-[(2R)-3-(3,4-dihydro-1H-isoquinolin-2-yl)-2-hydroxy-propyl]-6-propyl-3,4-dihydroisoquinolin-1-one] as the compound, how does the pIC50 read?
**A.** The pIC50 was 7.00 to 9.00.

**Q.** How did the pIC50 turn out when `O=C1c2ccc(-c3ccc(F)nc3)cc2CCN1C[C@H](O)CN1CCc2ccccc2C1` [Example 15, 2-[(2R)-3-(3,4-dihydro-1H-isoquinolin-2-yl)-2-hydroxy-propyl]-6-(6-fluoro-3-pyridyl)-3,4-dihydroisoquinolin-1-one] was run?
**A.** Its pIC50 is 7.00 to 9.00.

**Q.** `C[C@@H]1CN(c2ccc3c(c2)CCN(C[C@H](O)CN2CCc4ccccc4C2)C3=O)CCO1` [Example 16, 2-[(2R)-3-(3,4-dihydro-1H-isoquinolin-2-yl)-2-hydroxy-propyl]-6-[(2R)-2-methylmorpholin-4-yl]-3,4-dihydroisoquinolin-1-one] was tested. Which pIC50 did it give?
**A.** Its pIC50 is 7.00 to 9.00.

**Q.** With `CN1CCN(c2ccc3c(c2)CCN(C[C@H](O)CN2CCc4ccccc4C2)C3=O)CC1` [Example 17, 2-[(2R)-3-(3,4-dihydro-1H-isoquinolin-2-yl)-2-hydroxy-propyl]-6-(4-methylpiperazin-1-yl)-3,4-dihydroisoquinolin-1-one] as the compound, how does the pIC50 read?
**A.** Its pIC50 is 7.00 to 9.00.

**Q.** How did the pIC50 turn out when `O=C1c2ccc(N3CCCC3=O)cc2CCN1C[C@H](O)CN1CCc2ccccc2C1` [Example 18, 2-[(2R)-3-(3,4-dihydro-1H-isoquinolin-2-yl)-2-hydroxy-propyl]-6-(2-oxopyrrolidin-1-yl)-3,4-dihydroisoquinolin-1-one] was run?
**A.** The pIC50 was 5.00 to 6.00.

**Q.** `CC(C)(C)C(=O)Nc1ccc2c(c1)CCN(C[C@H](O)CN1CCc3ccccc3C1)C2=O` [Example 19, N-[2-[(2R)-3-(3,4-dihydro-1H-isoquinolin-2-yl)-2-hydroxy-propyl]-1-oxo-3,4-dihydroisoquinolin-6-yl]-2,2-dimethylpropanamide] was tested. Which pIC50 did it give?
**A.** Its pIC50 is 6.00 to 7.00.

**Q.** With `O=C1c2ccc(N3CCC3=O)cc2CCN1C[C@H](O)CN1CCc2ccccc2C1` [Example 20, 2-[(2R)-3-(3,4-dihydro-1H-isoquinolin-2-yl)-2-hydroxy-propyl]-6-(2-oxoazetidin-1-yl)-3,4-dihydroisoquinolin-1-one] as the compound, how does the pIC50 read?
**A.** Its pIC50 is 6.00 to 7.00.

**Q.** How did the pIC50 turn out when `O=C1c2ccc(N3CCCCC3=O)cc2CCN1C[C@H](O)CN1CCc2ccccc2C1` [Example 21, 2-[(2R)-3-(3,4-dihydro-1H-isoquinolin-2-yl)-2-hydroxy-propyl]-6-(2-oxo-1-piperidyl)-3,4-dihydroisoquinolin-1-one] was run?
**A.** The pIC50 was 6.00 to 7.00.

**Q.** With `O=C1c2ccc(NCc3cccnc3)cc2CCN1C[C@H](O)CN1CCc2ccccc2C1` [Example 22, 2-[(2R)-3-(3,4-dihydro-1H-isoquinolin-2-yl)-2-hydroxy-propyl]-6-(3-pyridylmethylamino)-3,4-dihydroisoquinolin-1-one] as the compound, how does the pIC50 read?
**A.** Its pIC50 is 5.00 to 6.00.

**Q.** How did the pIC50 turn out when `O=C1c2ccc(NCC3CCOCC3)cc2CCN1C[C@H](O)CN1CCc2ccccc2C1` [Example 23, 2-[(2R)-3-(3,4-dihydro-1H-isoquinolin-2-yl)-2-hydroxy-propyl]-6-(tetrahydropyran-4-ylmethylamino)-3,4-dihydroisoquinolin-1-one] was run?
**A.** The pIC50 was 7.00 to 9.00.

**Q.** How did the pIC50 turn out when `CC(=O)N1CCC(CNc2ccc3c(c2)CCN(C[C@H](O)CN2CCc4ccccc4C2)C3=O)CC1` [Example 24, 6-[(1-acetyl-4-piperidyl)methylamino]-2-[(2R)-3-(3,4-dihydro-1H-isoquinolin-2-yl)-2-hydroxy-propyl]-3,4-dihydroisoquinolin-1-one] was run?
**A.** The pIC50 was 7.00 to 9.00.

**Q.** How did the pIC50 turn out when `CC(C)(O)CNc1ccc2c(c1)CCN(C[C@H](O)CN1CCc3ccccc3C1)C2=O` [Example 25, 2-[(2R)-3-(3,4-dihydro-1H-isoquinolin-2-yl)-2-hydroxy-propyl]-6-[(2-hydroxy-2-methyl-propyl)amino]-3,4-dihydroisoquinolin-1-one] was run?
**A.** Its pIC50 is 7.00 to 9.00.

**Q.** `O=C(Nc1ccc2c(c1)CCN(C[C@H](O)CN1CCc3ccccc3C1)C2=O)c1cccnc1` [Example 26, N-[2-[(2R)-3-(3,4-dihydro-1H-isoquinolin-2-yl)-2-hydroxy-propyl]-1-oxo-3,4-dihydroisoquinolin-6-yl]pyridine-3-carboxamide] was tested. Which pIC50 did it give?
**A.** The pIC50 was 7.00 to 9.00.

**Q.** With `O=C(Nc1ccc2c(c1)CCN(C[C@H](O)CN1CCc3ccccc3C1)C2=O)c1ccncc1` [Example 27, N-[2-[(2R)-3-(3,4-dihydro-1H-isoquinolin-2-yl)-2-hydroxy-propyl]-1-oxo-3,4-dihydroisoquinolin-6-yl]pyridine-4-carboxamide] as the compound, how does the pIC50 read?
**A.** The pIC50 was 6.00 to 7.00.

**Q.** With `CC1CC(C)CN(c2ccc3c(c2)CCN(C[C@H](O)CN2CCc4ccccc4C2)C3=O)C1` (stereo partly drawn) [Example 28, 2-[(2R)-3-(3,4-dihydro-1H-isoquinolin-2-yl)-2-hydroxy-propyl]-6-(3,5-dimethyl-1-piperidyl)-3,4-dihydroisoquinolin-1-one] as the compound, how does the pIC50 read?
**A.** The pIC50 was 6.00 to 7.00.

**Q.** How did the pIC50 turn out when `CC1CN(c2ccc3c(c2)CCN(C[C@H](O)CN2CCc4ccccc4C2)C3=O)CC(C)N1` (stereo partly drawn) [Example 29, 2-[(2R)-3-(3,4-dihydro-1H-isoquinolin-2-yl)-2-hydroxy-propyl]-6-(3,5-dimethylpiperazin-1-yl)-3,4-dihydroisoquinolin-1-one] was run?
**A.** The pIC50 was 7.00 to 9.00.

**Q.** `O=C1c2ccc(NCC3CCOC3)cc2CCN1C[C@H](O)CN1CCc2ccccc2C1` (stereo partly drawn) [Example 30, 2-[(2R)-3-(3,4-dihydro-1H-isoquinolin-2-yl)-2-hydroxy-propyl]-6-(tetrahydrofuran-3-ylmethylamino)-3,4-dihydroisoquinolin-1-one] was tested. Which pIC50 did it give?
**A.** The pIC50 was 7.00 to 9.00.
